Data on one molecule can be found in patent US20250170098A1, “MOLECULAR JACKHAMMER FOR MECHANICAL DESTRUCTION OF CELLULAR STRUCTURE” (William Marsh Rice University, priority 2022, published 2025).

Test [1] deals with A375 cells. Nature of the test: Crystal violet cell viability assay. Type of test: cell-based, human. The following applies: 2 μM; 10 min 730 nm light at 80 mW/cm^2. On the procedure: Crystal violet cell viability assay. The crystal violet assay was used to measures the cell viability. The principle of this method is that the viable cells adhere to the surface of the cell culture dish and keep growing and remain attached through the standard cell culture conditions during a period of 1-2 days and through the staining conditions in the assay. […] For specific details, A375 cells were harvested and counted, and then 20,000 A375 cells per well were added in 24 cell culture well plate (Corning) and cultured for 1 day at standard incubation conditions of 37° C. and 5% CO2. The cells were treated in four experimental groups (4 samples per group): group 1) 0.1% DMSO, group 2) 0.1% DMSO+NIR light treatment, group 3) 2 μM Cy7.5-amine, and group 4) 2 μM Cy7.5-amine+NIR light. The treatments with 0.1% DMSO or 2 μM Cy7.5-amine were done by adding those respective concentrations to the cells in the media and then incubated for 60 min. Immediately after the incubation, the cells in the groups with “+NIR light”, were treated with 730 nm light at 80 mW/cm^2 for 10 min. After the treatment with NIR light, the media in all the groups was removed and fresh media was added. […] Then the crystal violet was quantified by its absorbance at 570 nm. The cell viability was calculated from the absorbance relative to the absorbance in the cells without any treatment. […]

In test [2] the test system is human melanoma A375 cells. Nature of the test: Cell permeabilization to DAPI, flow cytometry analysis. The class given is cell-based. On the procedure: The activity of plasmon-driven MJHs to open cell membranes by VDA upon NIR light-activation was evaluated in human melanoma A375 cells. When the cell membranes were open by VDA, DAPI enters immediately into the cells and stain the nucleus, and flow cytometry analysis was used to quantify the percentage of DAPI positive cells at variable concentrations of MJH. The flow cytometry analysis is conducted immediately after the cells were treated with 730 nm LED light at 80 mW/cm^2 for 10 min. Typically, it took ˜30 s to start cell counting and observe that DAPI already had entered into the cell membrane-compromised cells but not in the controls without VDA action. This is indicative of a rapid necrotic cell death and cell membrane permeabilization to DAPI by VDA action. The effective concentration needed to permeabilize cells by 50% (VDA IC50) was estimated for each molecule.
The flow cytometry data was analyzed using FlowJo software version 10.5.3. Then, a wide polygonal gate was drawn as shown in FIG. 33A since we were interested in detecting any cell death after treatment, we were not only interested in measuring healthy cell populations. Sometimes, we observed that the death cell population upon treatment shifted outside the gate if a narrow gate was used. Then, the singlets were selected and the DAPI fluorescence intensity was plotted versus the SSC-A and the gate for DAPI positive cells was drawn as shown in FIG. 33C and the analysis was applied to all samples in the group. In FIG. 33D, a DAPI positive population is observed in the same analysis group. This analysis was applied to calculate the percentage of DAPI positive cells.
Cell Permeabilization and flow cytometry analysis. A375 cells were cultured as described before. One day before the treatment, cells were inoculated at 5 million cells per dish (10 cm polystyrene tissue culture dish). The cells were harvested using 0.05% trypsin-EDTA (Gibco, 25-300-054), then the cells were counted and were adjusted to a cell density of 2×10^5 cells/mL in DMEM media with L-glutamine, 4.5 g/L glucose, and sodium pyruvate (Corning Inc. 10013CV) and supplemented with 10% FBS (Corning, 35010CV), 2×MEM vitamin solution (Gibco, 11120052), 1×MEM non-essential amino acid solution (Gibco, 11140050) and penicillin/streptomycin. 1 mL of this cell suspension containing 2×10^5 cells was used in each treatment. In a 1.5 mL Eppendorf tube, […] containing 2 mM Cy7.5-amine (or other cyanine molecule or other concentration) in DMSO (Fisher, 99.7%) was placed in the bottom of the tube, then 1 mL of the cell suspension was added into the tube to get final concentration of 2 μM of Cy7.5-amine containing 0.1% DMSO and 2×10^5 cells. The mixture was then incubated at 37° C. and 5% CO2 for 30 min. Then, 1 mM DAPI was added into the cell suspension. Then, the cells suspension was transferred to a […] tissue culture dish and immediately the cells were treated under the light beam of NIR light of 730 nm at 80 mW/cm^2 (or adjusted powers down to 20 mW/cm^2) for 10 min (or adjusted illumination times down to 30 s) using LED light source (PRIZMATIX, UHP-F-730, Israel) which covered the entire dish. While the cells were treated, the dish was placed on top of an aluminum block painted black, so that the excess NR light and that was not reflected back into the cell suspension while the aluminum block actED as a heat-sink, maintaining a constant temperature in the dish during the irradiation. The instrument for flow cytometry analysis (SONY, MA900 Multi-Application Cell Sorter) was already set up and calibrated by the time the light treatment was finished. Therefore, as soon as the 10-min light treatment was completed, the cell suspension was rapidly transferred from the 35 mm dish to a flow cytometry tube and the cells were analyzed for DAPI permeabilization and Cy7.5-amine binding. It took ˜30 s to load the sample and to start the analysis. […]
For orientation: In flow cytometry, cells or beads pass a laser one at a time.

For `CN1/C(=C\C=C2C=C(/C=C/C3=[N+](CCCCCC(=O)NCCCCCCN)c4ccc5ccccc5c4C3(C)C)CCC\2)C(C)(C)c2c1ccc1ccccc21` [Cy7.5-amine], the “dead cells by crystal violet assay” value in test [1] is reported as 99.9%. The “permeabilization to DAPI staining, percentage of cells” value in test [2] (1 μM, 730 nm LED at 80 mW/cm^2 for 10 min) amounted to 99.6%. Further, the “binding to cells upon addition of acetic acid” value in test [2] (2 μM, acetic acid 0 mM-10 mM) is listed as “not able to bind efficiently to lipid membranes”.
